In US9199984B2, “Inhibition of enzymes” (CHIESI FARMACEUTICI S.p.A., priority 2012, dated 2015):
Counter-ions that a name gives are not always drawn.

Target: T1, human neutrophil elastase (HNE) (Homo sapiens, UniProt P08246)
T1 construct: purchased Sigma E8140
T1 sequence (P08246 30-247 limits assumed): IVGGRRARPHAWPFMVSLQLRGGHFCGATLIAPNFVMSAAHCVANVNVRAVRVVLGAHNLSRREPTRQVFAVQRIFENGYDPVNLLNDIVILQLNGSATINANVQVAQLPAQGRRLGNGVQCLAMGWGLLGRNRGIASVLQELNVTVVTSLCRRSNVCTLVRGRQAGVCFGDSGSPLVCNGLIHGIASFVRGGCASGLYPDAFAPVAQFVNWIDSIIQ
Assay: HNE enzyme activity assay
Assay type: biochemical
Conditions: human leukocyte elastase, substrate MeOSuc-Ala-Ala-Pro-Val-AMC 100 μM, 25° C. for 30 minutes, fluorescence; read-out: HNE inhibition
Procedure: Compounds of the present invention were tested for potency in a human neutrophil elastase (HNE) enzyme activity assay.
Assays were performed in 96-well plates in a total assay volume of 100 μl. The final concentration of elastase enzyme (human leukocyte elastase, Sigma E8140) was 0.0036 units/well […]. The peptide substrate (MeOSuc-Ala-Ala-Pro-Val-AMC, Calbiochem #324740) was used at a final concentration of 100 μM. The final concentration of DMSO was 1% in the assay buffer (0.05M Tris.HCl, 0.1M NaCl, 0.1M CaCl2, 0.0005% brij-35, pH 7.5). The enzymatic reaction was started by addition of the enzyme and incubated at 25° C. for 30 minutes. After incubation, the reaction was stopped by addition of soybean trypsin inhibitor (Sigma T9003) at a final concentration of 50 μg/well. Fluorescence was measured using a Molecular Devices fluorescence plate reader using 380 nm excitation and 460 nm emission wavelengths.
A dose response to each compound was performed and the effect of compound in each experiment was expressed as a percentage inhibition of the control enzyme fluorescence. Dose response curves were plotted and compound potency (IC50) was determined. Compounds were tested in at least two separate experiments.

Row | SMILES | IC50 [nM]
1 | CC(=O)N1CCC(NC(=O)Nc2nc3c(-c4cccc(C(F)(F)F)c4)c(C)c(-c4ccnn4-c4ccc(C#N)cc4)cn3n2)CC1 [Example 57, 1-(1-Acetyl-piperidin-4-yl)-3-[6-[2-(4-cyano-phenyl)-2H-pyrazol-3-yl]-7-methyl-8-(3-trifluoromethyl-phenyl)-[1,2,4]triazolo[1,5-a]pyridin-2-yl]-urea] | < 20
2 | CC(=O)Nc1nc2c(-c3cccc(C(F)(F)F)c3)c(C)c(-c3ccccc3-c3ccc(C#N)cc3)cn2n1 [Example 43] | < 20
3 | CC(=O)Nc1nc2c(-c3cccc(C(F)(F)F)c3)c(C)c(-c3ncnn3-c3ccc(C#N)cc3)cn2n1 [Example 39, N-[6-[2-(4-Cyano-phenyl)-2H-[1,2,4]triazol-3-yl]-7-methyl-8-(3-trifluoromethyl-phenyl)-[1,2,4]triazolo[1,5-a]pyridin-2-yl]-acetamide] | < 20
4 | Cc1c(-c2ccnn2-c2ccc(C#N)cc2)cn2nc(NC(=O)OCCC[N+](C)(C)C)nc2c1-c1cccc(C(F)(F)F)c1 [Example 37, {3-[6-[2-(4-Cyano-phenyl)-2H-pyrazol-3-yl]-7-methyl-8-(3-trifluoromethyl-phenyl)-[1,2,4]triazolo[1,5-a]pyridin-2-ylcarbamoyloxy]-propyl}-trimethyl-ammonium formate] | < 20
5 | Cc1c(-c2ccnn2-c2ccc(C#N)cc2)cn2nc(NCCCC(=O)N(C)CCN(C)C)nc2c1-c1cccc(C(F)(F)F)c1 [Example 60, 4-[6-[2-(4-Cyano-phenyl)-2H-pyrazol-3-yl]-7-methyl-8-(3-trifluoromethyl-phenyl)-[1,2,4]triazolo[1,5-a]pyridin-2-ylamino]-N-(2-dimethylamino-ethyl)-N-methyl-butyramide formate salt] | < 20
6 | CC(=O)Nc1nc2c(-c3cccc(C(F)(F)F)c3)c(C)c(-c3c(C)cnn3-c3ccc(C#N)cc3)cn2n1 [Example 42, N-[6-[2-(4-Cyano-phenyl)-4-methyl-2H-pyrazol-3-yl]-7-methyl-8-(3-trifluoromethyl-phenyl)-[1,2,4]triazolo[1,5-a]pyridin-2-yl]-acetamide] | < 20
7 | Cc1c(-c2ccnn2-c2ccc(C#N)cc2)cn2nc(NC(=O)CCC[N+](C)(C)C)nc2c1-c1cccc(C(F)(F)F)c1 [Example 17, {3-[6-[2-(4-Cyano-phenyl)-2H-pyrazol-3-yl]-7-methyl-8-(3-trifluoromethyl-phenyl)-[1,2,4]triazolo[1,5-a]pyridin-2-ylcarbamoyl]-propyl}-trimethyl-ammonium bromide] | < 20
8 | CC(=O)Nc1nc2c(-c3cccc(OC(F)(F)F)c3)c(C)c(-c3ccnn3-c3ccc(C#N)cc3)cn2n1 [Example 44, N-[6-[2-(4-Cyano-phenyl)-2H-pyrazol-3-yl]-7-methyl-8-(3-trifluoromethoxy-phenyl)-[1,2,4]triazolo[1,5-a]pyridin-2-yl]-acetamide] | 20 to 100
9 | CNC(=O)Cn1nc2c(-c3cccc(C(F)(F)F)c3)c(C)c(-c3ccnn3-c3ccc(C#N)cc3)cn2c1=O [Example 12, 2-[6-[2-(4-Cyano-phenyl)-2H-pyrazol-3-yl]-7-methyl-3-oxo-8-(3-trifluoromethyl-phenyl)-[1,2,4]triazolo[4,3-a]pyridin-2-yl]-N-methyl-acetamide] | 100 to 500

More lines, now with the values ahead:

Row | IC50 [nM] | SMILES
10 | < 20 | Cc1c(-c2ccnn2-c2ccc(C#N)cc2)cn2nc(Nc3ccc(S(C)(=O)=O)cc3)nc2c1-c1cccc(C(F)(F)F)c1 [Example 7, 4-{5-[2-(4-Methanesulfonyl-phenylamino)-7-methyl-8-(3-trifluoromethyl-phenyl)-[1,2,4]triazolo[1,5-a]pyridin-6-yl]-pyrazol-1-yl}-benzonitrile]
11 | 20 to 100 | Cc1c(-c2ccnn2-c2ccc(C#N)cc2)cn2nc(NCCN(C)C)nc2c1-c1cccc(C(F)(F)F)c1 [Example 29, 4-{5-[2-(2-Dimethylamino-ethylamino)-7-methyl-8-(3-trifluoromethyl-phenyl)-[1,2,4]triazolo[1,5-a]pyridin-6-yl]-pyrazol-1-yl}-benzonitrile]
12 | < 20 | Cc1c(-c2ccnn2-c2ccc(C#N)cc2)cn2nc(NC(=O)CN(C)C)nc2c1-c1cccc(C(F)(F)F)c1 [Example 14, N-[6-[2-(4-Cyano-phenyl)-2H-pyrazol-3-yl]-7-methyl-8-(3-trifluoromethyl-phenyl)-[1,2,4]triazolo[1,5-a]pyridin-2-yl]-2-dimethylamino-acetamide]
13 | < 20 | Cc1c(-c2ccnn2-c2ccc(C#N)cc2)cn2nc(NC(=O)NC3CCN(S(C)(=O)=O)CC3)nc2c1-c1cccc(C(F)(F)F)c1 [Example 58, 1-[6-[2-(4-Cyano-phenyl)-2H-pyrazol-3-yl]-7-methyl-8-(3-trifluoromethyl-phenyl)-[1,2,4]triazolo[1,5-a]pyridin-2-yl]-3-(1-methanesulfonyl-piperidin-4-yl)-urea]
14 | 20 to 100 | Cc1c(-c2ccnn2-c2ccc(C#N)cc2)cn2nc(NS(C)(=O)=O)nc2c1-c1cccc(C(F)(F)F)c1 [Example 27, N-[6-[2-(4-Cyano-phenyl)-2H-pyrazol-3-yl]-7-methyl-8-(3-trifluoromethyl-phenyl)-[1,2,4]triazolo[1,5-a]pyridin-2-yl]-methanesulfonamide]
15 | 20 to 100 | Cc1c(-c2ccnn2-c2ccc(C#N)cc2)cn2ccnc2c1-c1cccc(C(F)(F)F)c1 [Example 6, 4-{5-[7-Methyl-8-(3-trifluoromethyl-phenyl)-imidazo[1,2-a]pyridin-6-yl]-pyrazol-1-yl}-benzonitrile]
16 | < 20 | Cc1c(-c2ccnn2-c2ccc(C#N)cc2S(C)(=O)=O)cn2nc(N)nc2c1-c1cccc(C(F)(F)F)c1 [Example 40, 4-{5-[2-Amino-7-methyl-8-(3-trifluoromethyl-phenyl)-[1,2,4]triazolo[1,5-a]pyridin-6-yl]pyrazol-1-yl}-3-methanesulfonyl-benzonitrile]
17 | < 20 | Cc1c(-c2ccnn2-c2ccc(C#N)cc2)cn2ncnc2c1-c1cccc(C(F)(F)F)c1 [Example 3, 4-{5-[7-Methyl-8-(3-trifluoromethyl-phenyl)-[1,2,4]triazolo[1,5-a]pyridin-6-yl]-pyrazol-1-yl}-benzonitrile]
18 | > 500 | Cc1cn2cc(-c3ccnn3-c3ccc(C#N)cc3)c(C)c(-c3cccc(C(F)(F)F)c3)c2n1 [Example 5, 4-{5-[2,7-Dimethyl-8-(3-trifluoromethyl-phenyl)-imidazo[1,2-a]pyridin-6-yl]-pyrazol-1-yl}-benzonitrile]
19 | < 20 | Cc1c(-c2ccnn2-c2ccc(C#N)cc2)cn2nc(NCCO)nc2c1-c1cccc(C(F)(F)F)c1 [Example 48, 4-{5-[2-(2-Hydroxy-ethylamino)-7-methyl-8-(3-trifluoromethyl-phenyl)-[1,2,4]triazolo[1,5-a]pyridin-6-yl]-pyrazol-1-yl}-benzonitrile]
20 | < 20 | Cc1c(-c2ccnn2-c2ccc(C#N)cc2)cn2nc(NCCCO)nc2c1-c1cccc(C(F)(F)F)c1 [Example 53, 4-{5-[2-(3-Hydroxy-propylamino)-7-methyl-8-(3-trifluoromethyl-phenyl)-[1,2,4]triazolo[1,5-a]pyridin-6-yl]-pyrazol-1-yl}-benzonitrile]
21 | < 20 | Cc1c(-c2ccnn2-c2ccc(C#N)cc2)cn2c(=O)[nH]nc2c1-c1cccc(C(F)(F)F)c1 [Example 9, 4-{5-[7-Methyl-3-oxo-8-(3-trifluoromethyl-phenyl)-2,3-dihydro-[1,2,4]triazolo[4,3-a]pyridin-6-yl]-pyrazol-1-yl}-benzonitrile]
